From ChEMBL document CHEMBL4725294, “Centrally Active Multitarget Anti-Alzheimer Agents Derived from the Antioxidant Lead CR-6” (J Med Chem, 2020)
Active and inactive are the calls of the source. The rule behind the calls is not given here.

Columns and labels:
Beta-secretase 1 = Beta-secretase 1 (Homo sapiens, UniProt P56817); experiment: Inhibition human BACE1 expressed in baculovirus expression system at 5 uM using Panvera peptide as substrate measured after 60 mins by fluorescence assay relative to control; settings: 1 h
Beta-secretase 1, sequence (P56817 whole entry): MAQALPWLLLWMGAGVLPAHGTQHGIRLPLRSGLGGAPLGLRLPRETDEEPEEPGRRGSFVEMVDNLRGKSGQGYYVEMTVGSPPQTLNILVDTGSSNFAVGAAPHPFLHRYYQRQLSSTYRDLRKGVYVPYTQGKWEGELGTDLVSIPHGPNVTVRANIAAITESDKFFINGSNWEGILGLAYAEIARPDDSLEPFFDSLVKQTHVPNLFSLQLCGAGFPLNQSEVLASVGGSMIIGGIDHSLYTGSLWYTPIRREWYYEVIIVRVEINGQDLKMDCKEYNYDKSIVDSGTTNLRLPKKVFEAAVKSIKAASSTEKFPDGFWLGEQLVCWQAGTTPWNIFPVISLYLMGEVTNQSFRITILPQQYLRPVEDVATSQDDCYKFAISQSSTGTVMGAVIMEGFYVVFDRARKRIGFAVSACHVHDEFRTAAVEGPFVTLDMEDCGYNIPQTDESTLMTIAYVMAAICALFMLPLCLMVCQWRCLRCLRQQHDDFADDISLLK

[1] = Acute toxicity in C57BL6/J mouse assessed as reduction in locomotor activity at 15 mg/kg, ip measured after 5 mins; type: organism-based; settings: in vivo
[2] = Acute toxicity in C57BL6/J mouse assessed as piloerection at 15 mg/kg, ip measured after 5 mins; type: organism-based; settings: in vivo
[3] = Acute toxicity in C57BL6/J mouse assessed as tremor at 15 mg/kg, ip measured after 5 mins; type: organism-based; settings: in vivo
Mus musculus [4] = experiment: Improvement in memory impairment in APP/PS1 double mutant-transgenic C57BL6/J mouse model assessed as […] at 10 mg/kg/day, ip for 4 weeks followed by compound washout by maze two-object recognition test; type: functional, organism-based
Mus musculus [5] = experiment: Antialzheimer activity in APP/PS1 double mutant-transgenic C57BL6/J mouse model assessed as reduction in soluble amyloid beta 40 level in cortex at 10 mg/kg/day, ip for 4 weeks followed by compound washout and measured after 24 hrs by ELISA; type: functional, organism-based
Mus musculus [6] = experiment: Antialzheimer activity in APP/PS1 double mutant-transgenic C57BL6/J mouse model assessed as reduction in soluble amyloid beta 42 level in cortex at 10 mg/kg/day, ip for 4 weeks followed by compound washout and measured after 24 hrs by ELISA; type: functional, organism-based
Mus musculus [7] = experiment: Antialzheimer activity in APP/PS1 double mutant-transgenic C57BL6/J mouse model assessed as reduction in Bace1 gene expression at 10 mg/kg/day, ip for 4 weeks followed by compound washout and measured after 24 hrs by qPCR analysis; type: functional, organism-based
Mus musculus [8] = experiment: Antialzheimer activity in APP/PS1 double mutant-transgenic C57BL6/J mouse model assessed as increase in Adam10 expression at 10 mg/kg/day, ip for 4 weeks followed by compound washout and measured after 24 hrs by Western blot analysis; type: functional, organism-based
Mus musculus [9] = experiment: Antialzheimer activity in APP/PS1 double mutant-transgenic C57BL6/J mouse model assessed as reduction in Bace1 expression at 10 mg/kg/day, ip for 4 weeks followed by compound washout and measured after 24 hrs by Western blot analysis; type: functional, organism-based
[10] = Stability in human plasma assessed as parent compound remaining at 10 uM measured immediately by UPLC-MS/MS analysis; type: ADME, cell-free; settings: read-out: Stabilty
[11] = Stability in human plasma assessed as parent compound remaining at 10 uM measured after 60 mins by UPLC-MS/MS analysis; type: ADME, cell-free; settings: read-out: Stabilty
[12] = Stability in human plasma assessed as parent compound remaining at 10 uM measured after 180 mins by UPLC-MS/MS analysis; type: ADME, cell-free; settings: read-out: Stabilty
[13] = Stability in human plasma assessed as parent compound remaining at 10 uM measured after 360 mins by UPLC-MS/MS analysis; type: ADME, cell-free; settings: read-out: Stabilty
[14] = Stability in mouse plasma assessed as parent compound remaining at 10 uM measured after 60 mins by UPLC-MS/MS analysis; type: ADME, cell-free; settings: read-out: Stabilty
[15] = Stability in mouse plasma assessed as parent compound remaining at 10 uM measured after 360 mins by UPLC-MS/MS analysis; type: ADME, cell-free; settings: read-out: Stabilty
[16] = Stability in rat plasma assessed as parent compound remaining at 10 uM measured immediately by UPLC-MS/MS analysis; type: ADME, cell-free; settings: read-out: Stabilty
[17] = Stability in rat plasma assessed as parent compound remaining at 10 uM measured after 60 mins by UPLC-MS/MS analysis; type: ADME, cell-free; settings: read-out: Stabilty
[18] = Stability in rat plasma assessed as parent compound remaining at 10 uM measured after 180 mins by UPLC-MS/MS analysis; type: ADME, cell-free; settings: read-out: Stabilty
[19] = Stability in rat plasma assessed as parent compound remaining at 10 uM measured after 360 mins by UPLC-MS/MS analysis; type: ADME, cell-free; settings: read-out: Stabilty
[20] = Stability in human liver microsomes assessed as parent compound remaining at 5 uM measured up to 60 mins by UPLC-MS/MS analysis; type: ADME, Microsome; settings: read-out: Stabilty
[21] = Half life in human liver microsomes at 5 uM by UPLC-MS/MS analysis; type: ADME, Microsome
[22] = Intrinsic clearance in human liver microsomes assessed per mg protein at 5 uM by UPLC-MS/MS analysis; type: ADME, Microsome; settings: read-out: CLH
[23] = Intrinsic clearance in mouse liver microsomes assessed per mg protein at 5 uM by UPLC-MS/MS analysis; type: ADME, Microsome; settings: read-out: CLH
[24] = Half life in rat liver microsomes at 5 uM by UPLC-MS/MS analysis; type: ADME, Microsome
[25] = Intrinsic clearance in rat liver microsomes assessed per mg protein at 5 uM by UPLC-MS/MS analysis; type: ADME, Microsome; settings: read-out: CLH
[26] = Drug metabolism in human liver microsomes assessed as N-[8-[(6-chloro-1,2,3,4-tetrahydroacridin-9-yl)amino]octyl]-3-hydroxy-5-(4-methoxy-3,6-dioxo-cyclohexa-1,4-dien-1-yl)-3-methyl-pentanamide formation at 5 uM measured up to 60 mins by UPLC-MS/MS analysis; type: ADME, Microsome; settings: 1 h
[27] = Drug metabolism in human liver microsomes assessed as N-[8-[(6-chloro-1,2,3,4-tetrahydroacridin-9-yl)amino]octyl]-2-(8-methoxy-2-methyl-6,9-dioxo-1-oxaspiro[4.5]dec-7-en-2-yl)acetamide formation at 5 uM measured up to 60 mins by UPLC-MS/MS analysis; type: ADME, Microsome; settings: 1 h
[28] = Drug metabolism in mouse liver microsomes assessed as N-[8-[(6-chloro-1,2,3,4-tetrahydroacridin-9-yl)amino]octyl]-3-hydroxy-5-(4-methoxy-3,6-dioxo-cyclohexa-1,4-dien-1-yl)-3-methyl-pentanamide formation at 5 uM measured up to 60 mins by UPLC-MS/MS analysis; type: ADME, Microsome; settings: 1 h
[29] = Drug metabolism in mouse liver microsomes assessed as N-[8-[(6-chloro-1,2,3,4-tetrahydroacridin-9-yl)amino]octyl]-5-(2,5-dihydroxy-4-methoxy-phenyl)-3-hydroxy-3-methyl-pentanamide formation at 5 uM measured up to 60 mins by UPLC-MS/MS analysis; type: ADME, Microsome; settings: 1 h
[30] = Drug metabolism in mouse liver microsomes assessed as 6-chloro-1,2,3,4-tetrahydroacridin-9-amine formation at 5 uM measured up to 60 mins by UPLC-MS/MS analysis; type: ADME, Microsome; settings: 1 h
[31] = Drug metabolism in rat liver microsomes assessed as N-[8-[(6-chloro-1,2,3,4-tetrahydroacridin-9-yl)amino]octyl]-3-hydroxy-5-(4-methoxy-3,6-dioxo-cyclohexa-1,4-dien-1-yl)-3-methyl-pentanamide formation at 5 uM measured up to 60 mins by UPLC-MS/MS analysis; type: ADME, Microsome; settings: 1 h
[32] = Drug metabolism in rat liver microsomes assessed as N-[8-[(6-chloro-1,2,3,4-tetrahydroacridin-9-yl)amino]octyl]-5-(2,5-dihydroxy-4-methoxy-phenyl)-3-hydroxy-3-methyl-pentanamide formation at 5 uM measured up to 60 mins by UPLC-MS/MS analysis; type: ADME, Microsome; settings: 1 h
[33] = Drug metabolism in rat liver microsomes assessed as 6-chloro-1,2,3,4-tetrahydroacridin-9-amine formation at 5 uM measured up to 60 mins by UPLC-MS/MS analysis; type: ADME, Microsome; settings: 1 h
Cholinesterase = Cholinesterase (Homo sapiens, UniProt P06276)
Cholinesterase, sequence (P06276 whole entry): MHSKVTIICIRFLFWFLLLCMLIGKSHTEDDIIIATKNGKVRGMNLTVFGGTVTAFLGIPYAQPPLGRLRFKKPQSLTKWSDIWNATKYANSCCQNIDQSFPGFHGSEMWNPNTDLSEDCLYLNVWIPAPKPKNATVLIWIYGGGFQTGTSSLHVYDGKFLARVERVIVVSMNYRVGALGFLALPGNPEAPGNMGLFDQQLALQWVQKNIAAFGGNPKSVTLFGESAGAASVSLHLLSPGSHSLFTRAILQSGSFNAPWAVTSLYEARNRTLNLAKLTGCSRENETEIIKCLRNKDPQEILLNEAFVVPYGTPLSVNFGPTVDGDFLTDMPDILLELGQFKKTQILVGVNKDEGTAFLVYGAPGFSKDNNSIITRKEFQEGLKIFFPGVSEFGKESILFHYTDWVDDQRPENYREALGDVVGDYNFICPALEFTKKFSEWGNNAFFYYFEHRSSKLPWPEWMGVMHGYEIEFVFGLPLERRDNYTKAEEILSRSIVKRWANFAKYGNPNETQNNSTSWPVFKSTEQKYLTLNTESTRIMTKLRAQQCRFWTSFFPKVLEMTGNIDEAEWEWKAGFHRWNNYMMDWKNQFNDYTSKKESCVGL
Description: Inhibition of recombinant human BChE using butyrylthiocholine iodide as substrate preincubated for 15 mins followed by substrate addition by Ellman's method

in vitro = settings: PAMPA
Description: Permeability of compound in PBS/EtOH buffer (7:3) PAMPA-BBB assay

COc1cc2c(cc1O)CCC(C)(CC(=O)NCCCCCCCCNc1c3c(nc4cc(Cl)ccc14)CCCC3)O2 (stereo unspecified)
inhibition at 5 µM (Beta-secretase 1): 19%
Activity [1]: Toxic
Activity [2]: Toxic
Activity [3]: Toxic
Activity (Mus musculus [4]): inactive
Activity (Mus musculus [5]): inactive
Activity (Mus musculus [6]): inactive
Activity (Mus musculus [7]): Active
Activity (Mus musculus [8]): inactive
Activity (Mus musculus [9]): inactive
remaining at 0 min, 10 µM [10]: 100%
remaining at 1 h, 10 µM [11]: 100%
remaining at 3 h, 10 µM [12]: 100%
remaining at 6 h, 10 µM [13]: 100%
remaining at 1 h, 10 µM [14]: 100%
remaining at 6 h, 10 µM [15]: 100%
remaining at 0 min, 10 µM [16]: 100%
remaining at 1 h, 10 µM [17]: 100%
remaining at 3 h, 10 µM [18]: 100%
remaining at 6 h, 10 µM [19]: 98%
remaining at 1 h, 5 µM [20]: 3.6%
half-life at 5 µM [21]: 12.6 min
microsomal CLint at 5 µM [22]: 55.2 µL/min/mg
microsomal CLint at 5 µM [23]: 13.7 µL/min/mg
half-life at 5 µM [24]: 42.4 min
microsomal CLint at 5 µM [25]: 16.3 µL/min/mg
Drug metabolism [26]: Metabolite_Detected
Drug metabolism [27]: Metabolite_Detected
Drug metabolism [28]: Metabolite_Detected
Drug metabolism [29]: Metabolite_Detected
Drug metabolism [30]: Metabolite_Detected
Drug metabolism [31]: Metabolite_Detected
Drug metabolism [32]: Metabolite_Detected
Drug metabolism [33]: Metabolite_Detected
IC50 (Cholinesterase): 170 nM
Papp (in vitro): 9.6 ×10⁻⁶ cm/s
